Reference: US12162893B2 (Erasca, Inc., priority 2020, dated 2024)

biological target: T1, mutant G12C K-RAS (Homo sapiens, UniProt P01116, G12C); assay: covalent adduct formation (CAF) with mutant G12C K-RAS; format: binding; settings: Table 1, Pyrimidone Core-Morpholine Unsubstituted; after 60 minutes at 10 micromolar
T1 construct: made in house; host or cells: E. coli BL21
Description: Embodiments disclosed herein are further illustrated by the following examples in Tables 1-4 and the Examples hereinbelow. The Tables indicate the compound number, structure, the observed mass spectral molecular weight peak, and covalent adduct formation (CAF) with a mutant G12C K-RAS after 60 minutes at a concentration of 10 micromolar.

| SMILES | % CAF (60 min) |
| --- | --- |
| C=CC(=O)N1CCN(c2nc(=O)n3c4c(c(N(C)c5ccccc5C)c(Cl)cc24)OCC3)CC1 [Example 6] | 17.6% |

same assay, conditions: Table 2, Pyrimidone Core-Morpholine Substituted; after 60 minutes at 10 micromolar

| SMILES | % CAF (60 min) |
| --- | --- |
| C=CC(=O)N1C[C@H](C)N(c2nc(=O)n3c4c(c(-c5c(O)cccc5F)c(Cl)cc24)OC[C@@H]3CO)C[C@H]1C [Example 28, (3S,10R)-7-((2S,5R)-4-acryloyl-2,5-dimethylpiperazin-1-yl)-9-chloro-10-(2-fluoro-6-hydroxyphenyl)-3-(hydroxymethyl)-2H-[1,4]oxazino[2,3,4-ij]quinazolin-5(3H)-one] | 1.3% |
| C=CC(=O)N1CCN(c2nc(=O)n3c4c(c(-c5c(O)cccc5F)c(Cl)cc24)OC[C@H]3CO)[C@@H](C)C1 [Example 23, (3R,10R)-7-((S)-4-acryloyl-2-methylpiperazin-1-yl)-9-chloro-10-(2-fluoro-6-hydroxyphenyl)-3-(hydroxymethyl)-2H-[1,4]oxazino[2,3,4-ij]quinazolin-5(3H)-one] | 0% |

same assay, conditions: Table 6; 10 μM, 1 h

| SMILES | % CAF @ 10 μM,1 h |
| --- | --- |
| C=CC(=O)N1C[C@H](C)N(c2nc(=O)n3c4c(c(-c5c(C)ccc6[nH]ncc56)c(Cl)cc24)OC[C@@H]3CCCN2C3CCC2COC3)C[C@H]1C [Example 281, (3S,10S)-3-(3-(3-oxa-8-azabicyclo[3.2.1]octan-8-yl)propyl)-7-((2S,5R)-4-acryloyl-2,5-dimethylpiperazin-1-yl)-9-chloro-10-(5-methyl-1H-indazol-4-yl)-2,3-dihydro-5H-[1,4]oxazino[2,3,4-ij]quinazolin-5-one] | 0% |
| C=CC(=O)N1C[C@H](C)N(c2nc(=O)n3c4c(c(-c5c(O)cccc5F)c(Cl)cc24)OC[C@H]3CN2CCOCC2)C[C@H]1C (atropisomer, axis not shown) [Example 210, (3R,10R)-7-((2S,5R)-4-acryloyl-2,5-dimethylpiperazin-1-yl)-9-chloro-10-(2-fluoro-6-hydroxyphenyl)-3-(morpholinomethyl)-2,3-dihydro-5H-[1,4]oxazino[2,3,4-ij]quinazolin-5-one] | 0% |
| C=CC(=O)N1C[C@H](C)N(c2nc(=O)n3c4c(c(-c5c(O)cccc5F)c(Cl)cc24)OC[C@H]3CN(C)CC(F)(F)F)C[C@H]1C (atropisomer, axis not shown) [Example 241, (3R,10R)-7-((2S,5R)-4-acryloyl-2,5-dimethylpiperazin-1-yl)-9-chloro-10-(2-fluoro-6-hydroxyphenyl)-3-((methyl(2,2,2-trifluoroethyl)amino)methyl)-2H-[1,4]oxazino[2,3,4-ij]quinazolin-5(3H)-one] | 0% |
| C=CC(=O)N1CCN(c2nc(=O)n3c4c(c(-c5c(O)cccc5F)c(Cl)cc24)OC[C@H]3CN2CCOCC2)[C@@H](C)C1 [Example 198, (3R,10S)-7-((S)-4-acryloyl-2-methylpiperazin-1-yl)-9-chloro-10-(2-fluoro-6-hydroxyphenyl)-3-(morpholinomethyl)-2,3-dihydro-5H-[1,4]oxazino[2,3,4-ij]quinazolin-5-one] | 100% |
| C=CC(=O)N1C[C@H](C)N(c2nc(=O)n3c4c(c(-c5ccc(F)cc5F)c(Cl)cc24)OC[C@@H]3CCCN2[C@@H]3CC[C@H]2COC3)C[C@H]1C [Example 252, (3S)-3-(3-((1R,5S)-3-oxa-8-azabicyclo[3.2.1]octan-8-yl)propyl)-7-((2S,5R)-4-acryloyl-2,5-dimethylpiperazin-1-yl)-9-chloro-10-(2,4-difluorophenyl)-2H-[1,4]oxazino[2,3,4-ij]quinazolin-5(3H)-one] | 60.5% |

The remaining lines, values ahead:

| % CAF @ 10 μM,1 h | SMILES |
| --- | --- |
| 51.2% | C=CC(=O)N1C[C@H](C)N(c2nc(=O)n3c4c(c(-c5ccc(F)cc5F)c(Cl)cc24)O[C@H](CCCO)C3)C[C@H]1C [Example 249, (2R)-7-((2S,5R)-4-acryloyl-2,5-dimethylpiperazin-1-yl)-9-chloro-10-(2,4-difluorophenyl)-2-(3-hydroxypropyl)-2,3-dihydro-5H-[1,4]oxazino[2,3,4-ij]quinazolin-5-one] |
| 0% | C=CC(=O)N1C[C@H](C)N(c2nc(=O)n3c4c(c(-c5ccccc5C(F)(F)F)c(Cl)cc24)OCC3)C[C@H]1C [Example 197, 7-((2S,5R)-4-acryloyl-2,5-dimethylpiperazin-1-yl)-9-chloro-10-(2-(trifluoromethyl)phenyl)-2,3-dihydro-5H-[1,4]oxazino[2,3,4-ij]quinazolin-5-one] |
| 53.4% | C=CC(=O)N1C[C@H](C)N(c2nc(=O)n3c4c(c(-c5ccc(F)cc5F)c(Cl)cc24)OC[C@@H]3CN(C(=O)[C@@H]2CCCN2C)C2CC2)C[C@H]1C [Example 310, (2S)-N-(((3S)-7-((2S,5R)-4-acryloyl-2,5-dimethylpiperazin-1-yl)-9-chloro-10-(2,4-difluorophenyl)-5-oxo-2,3-dihydro-5H-[1,4]oxazino[2,3,4-ij]quinazolin-3-yl)methyl)-N-cyclopropyl-1-methylpyrrolidine-2-carboxamide] |
| 94.2% | C=CC(=O)N1C[C@H](C)N(c2nc(=O)n3c4c(c(-c5c(C)ccc6[nH]ncc56)c(Cl)cc24)OC[C@H]3Cn2cccn2)C[C@H]1C (atropisomer, axis not shown) [Example 320, (3R,10R)-3-((1H-pyrazol-1-yl)methyl)-7-((2S,5R)-4-acryloyl-2,5-dimethylpiperazin-1-yl)-9-chloro-10-(5-methyl-1H-indazol-4-yl)-2,3-dihydro-5H-[1,4]oxazino[2,3,4-ij]quinazolin-5-one] |
| 97.5% | C=CC(=O)N1C[C@H](C)N(c2nc(=O)n3c4c(c(-c5c(O)cccc5F)c(Cl)cc24)OC[C@@H]3CCCN2CCOCC2)C[C@H]1C (atropisomer, axis not shown) [Example 265, (3S,10S)-7-((2S,5R)-4-acryloyl-2,5-dimethylpiperazin-1-yl)-9-chloro-10-(2-fluoro-6-hydroxyphenyl)-3-(3-morpholinopropyl)-2,3-dihydro-5H-[1,4]oxazino[2,3,4-ij]quinazolin-5-one] |
| 45.1% | C=CC(=O)N1C[C@H](C)N(c2nc(=O)n3c4c(c(-c5ccc(F)cc5F)c(Cl)cc24)OC[C@@H]3CC2(O)CCN(C)CC2)C[C@H]1C [Example 304, (3S)-7-((2S,5R)-4-acryloyl-2,5-dimethylpiperazin-1-yl)-9-chloro-10-(2,4-difluorophenyl)-3-((4-hydroxy-1-methylpiperidin-4-yl)methyl)-2,3-dihydro-5H-[1,4]oxazino[2,3,4-ij]quinazolin-5-one] |
| 96.4% | C=CC(=O)N1C[C@H](C)N(c2nc(=O)n3c4c(c(-c5ccc(F)cc5F)c(Cl)cc24)OC[C@H]3CCCN2C[C@@H]3C[C@H]2CO3)C[C@H]1C [Example 270, (3R)-3-(3-((1S,4S)-2-oxa-5-azabicyclo[2.2.1]heptan-5-yl)propyl)-7-((2S,5R)-4-acryloyl-2,5-dimethylpiperazin-1-yl)-9-chloro-10-(2,4-difluorophenyl)-2H-[1,4]oxazino[2,3,4-ij]quinazolin-5(3H)-one] |
| 89.8% | C=CC(=O)N1C[C@H](C)N(c2nc(=O)n3c4c(c(-c5ccc(F)cc5F)c(Cl)cc24)OC[C@H]3CCCN2C[C@H]3C[C@@H]2CO3)C[C@H]1C [Example 315, (3R)-3-(3-((1R,4R)-2-oxa-5-azabicyclo[2.2.1]heptan-5-yl)propyl)-7-((2S,5R)-4-acryloyl-2,5-dimethylpiperazin-1-yl)-9-chloro-10-(2,4-difluorophenyl)-2,3-dihydro-5H-[1,4]oxazino[2,3,4-ij]quinazolin-5-one] |
